Key:
B-A21 = test: Planktonic growth with extract and antibiotic relative to growth without both (Example 14); assay type: cell-based
Description: (§1) Starting from the herbal composition, the corresponding water extracts (or processed samples) was prepared according to the previously described Method B using 2.06 g of the above herbal composition with 40 mL water with 100 g/L sucrose for water extraction and including the decantation step before filtration. In an independent water extract preparation without sucrose, it has been measured that 2.06 g/40 mL of herbal composition corresponds to 14.5 g/L as deduced from the weight of the lyophilized dry herbal extract.
(§2) In Example 14 we calculate the growth of the bacteria in presence of antibiotic and/or herbal mix relative to the growth in the absence of both antibiotic and herbal mix extract.

B-A17 = test: as above; assay type: cell-based
Description: as §1, §2

[1] = M[20C]-576 0 μg/mL, antibiotic 3.91 μg/mL
[2] = M[20C]-576 0 μg/mL, antibiotic 7.81 μg/mL
[3] = M[20C]-576 0 μg/mL, antibiotic 15.63 μg/mL
[4] = M[20C]-576 0 μg/mL, antibiotic 31.25 μg/mL
[5] = M[20C]-576 0 μg/mL, antibiotic 62.50 μg/mL
[6] = M[20C]-576 0 μg/mL, antibiotic 125 μg/mL
[7] = M[20C]-576 0 μg/mL, antibiotic 250 μg/mL
[8] = M[20C]-576 0 μg/mL, antibiotic 500 μg/mL
[9] = M[20C]-576 0 μg/mL, antibiotic 1000 μg/mL
[10] = M[20C]-576 0 μg/mL, antibiotic 2000 μg/mL
[11] = M[20C]-576 0 μg/mL, antibiotic 4000 μg/mL
[12] = M[20C]-576 90.6 μg/mL, antibiotic 3.91 μg/mL
[13] = M[20C]-576 90.6 μg/mL, antibiotic 7.81 μg/mL
[14] = M[20C]-576 90.6 μg/mL, antibiotic 15.63 μg/mL
[15] = M[20C]-576 90.6 μg/mL, antibiotic 31.25 μg/mL
[16] = M[20C]-576 90.6 μg/mL, antibiotic 62.50 μg/mL
[17] = M[20C]-576 90.6 μg/mL, antibiotic 125 μg/mL
[18] = M[20C]-576 90.6 μg/mL, antibiotic 250 μg/mL
[19] = M[20C]-576 90.6 μg/mL, antibiotic 500 μg/mL
[20] = M[20C]-576 90.6 μg/mL, antibiotic 1000 μg/mL
[21] = M[20C]-576 90.6 μg/mL, antibiotic 2000 μg/mL
[22] = M[20C]-576 90.6 μg/mL, antibiotic 4000 μg/mL
[23] = M[20C]-576 181.3 μg/mL, antibiotic 3.91 μg/mL
[24] = M[20C]-576 181.3 μg/mL, antibiotic 7.81 μg/mL
[25] = M[20C]-576 181.3 μg/mL, antibiotic 15.63 μg/mL
[26] = M[20C]-576 181.3 μg/mL, antibiotic 31.25 μg/mL
[27] = M[20C]-576 181.3 μg/mL, antibiotic 62.50 μg/mL
[28] = M[20C]-576 181.3 μg/mL, antibiotic 125 μg/mL
[29] = M[20C]-576 181.3 μg/mL, antibiotic 250 μg/mL
[30] = M[20C]-576 181.3 μg/mL, antibiotic 500 μg/mL
[31] = M[20C]-576 181.3 μg/mL, antibiotic 1000 μg/mL
[32] = M[20C]-576 181.3 μg/mL, antibiotic 2000 μg/mL
[33] = M[20C]-576 181.3 μg/mL, antibiotic 4000 μg/mL

Question: What does the source list for `CC1(C)S[C@@H]2[C@H](NC(=O)[C@H](N)c3ccccc3)C(=O)N2[C@H]1C(=O)O` [Ampicillin]?
Answer: planktonic growth relative to the growth in the absence of both extract and antibiotic (B-A21; [1]): 153%; planktonic growth relative to the growth in the absence of both extract and antibiotic (B-A21; [2]): 132%; planktonic growth relative to the growth in the absence of both extract and antibiotic (B-A21; [3]): 131%; planktonic growth relative to the growth in the absence of both extract and antibiotic (B-A21; [4]): 132%; planktonic growth relative to the growth in the absence of both extract and antibiotic (B-A21; [5]): 116%; planktonic growth relative to the growth in the absence of both extract and antibiotic (B-A21; [6]): 150%; planktonic growth relative to the growth in the absence of both extract and antibiotic (B-A21; [7]): 113%; planktonic growth relative to the growth in the absence of both extract and antibiotic (B-A21; [8]): 112%; planktonic growth relative to the growth in the absence of both extract and antibiotic (B-A21; [9]): 106%; planktonic growth relative to the growth in the absence of both extract and antibiotic (B-A21; [10]): −1%; planktonic growth relative to the growth in the absence of both extract and antibiotic (B-A21; [11]): 0%; planktonic growth relative to the growth in the absence of both extract and antibiotic (B-A21; [12]): 108%; planktonic growth relative to the growth in the absence of both extract and antibiotic (B-A21; [13]): 83%; planktonic growth relative to the growth in the absence of both extract and antibiotic (B-A21; [14]): 82%; planktonic growth relative to the growth in the absence of both extract and antibiotic (B-A21; [15]): 82%; planktonic growth relative to the growth in the absence of both extract and antibiotic (B-A21; [16]): 74%; planktonic growth relative to the growth in the absence of both extract and antibiotic (B-A21; [17]): 83%; planktonic growth relative to the growth in the absence of both extract and antibiotic (B-A21; [18]): 75%; planktonic growth relative to the growth in the absence of both extract and antibiotic (B-A21; [19]): 83%; planktonic growth relative to the growth in the absence of both extract and antibiotic (B-A21; [20]): 0%; planktonic growth relative to the growth in the absence of both extract and antibiotic (B-A21; [21]): 0%; planktonic growth relative to the growth in the absence of both extract and antibiotic (B-A21; [22]): 0%; planktonic growth relative to the growth in the absence of both extract and antibiotic (B-A21; [23]): 44%; planktonic growth relative to the growth in the absence of both extract and antibiotic (B-A21; [24]): 63%; planktonic growth relative to the growth in the absence of both extract and antibiotic (B-A21; [25]): 70%; planktonic growth relative to the growth in the absence of both extract and antibiotic (B-A21; [26]): 69%; planktonic growth relative to the growth in the absence of both extract and antibiotic (B-A21; [27]): 70%; planktonic growth relative to the growth in the absence of both extract and antibiotic (B-A21; [28]): 62%; planktonic growth relative to the growth in the absence of both extract and antibiotic (B-A21; [29]): 62%; planktonic growth relative to the growth in the absence of both extract and antibiotic (B-A21; [30]): 61%; planktonic growth relative to the growth in the absence of both extract and antibiotic (B-A21; [31]): −2%; planktonic growth relative to the growth in the absence of both extract and antibiotic (B-A21; [32]): −3%; planktonic growth relative to the growth in the absence of both extract and antibiotic (B-A21; [33]): −2%; planktonic growth relative to the growth in the absence of both extract and antibiotic (B-A17; [1]): 176%; planktonic growth relative to the growth in the absence of both extract and antibiotic (B-A17; [2]): 176%; planktonic growth relative to the growth in the absence of both extract and antibiotic (B-A17; [3]): 148%; planktonic growth relative to the growth in the absence of both extract and antibiotic (B-A17; [4]): 131%; planktonic growth relative to the growth in the absence of both extract and antibiotic (B-A17; [5]): 112%; planktonic growth relative to the growth in the absence of both extract and antibiotic (B-A17; [6]): 2%; planktonic growth relative to the growth in the absence of both extract and antibiotic (B-A17; [7]): 0%; planktonic growth relative to the growth in the absence of both extract and antibiotic (B-A17; [8]): 0%; planktonic growth relative to the growth in the absence of both extract and antibiotic (B-A17; [9]): 0%; planktonic growth relative to the growth in the absence of both extract and antibiotic (B-A17; [10]): 0%; planktonic growth relative to the growth in the absence of both extract and antibiotic (B-A17; [11]): −1%; planktonic growth relative to the growth in the absence of both extract and antibiotic (B-A17; [12]): 64%; planktonic growth relative to the growth in the absence of both extract and antibiotic (B-A17; [13]): 76%; planktonic growth relative to the growth in the absence of both extract and antibiotic (B-A17; [14]): 75%; planktonic growth relative to the growth in the absence of both extract and antibiotic (B-A17; [15]): 58%; planktonic growth relative to the growth in the absence of both extract and antibiotic (B-A17; [16]): 18%; planktonic growth relative to the growth in the absence of both extract and antibiotic (B-A17; [17]): 1%; planktonic growth relative to the growth in the absence of both extract and antibiotic (B-A17; [18]): 0%; planktonic growth relative to the growth in the absence of both extract and antibiotic (B-A17; [19]): 0%; planktonic growth relative to the growth in the absence of both extract and antibiotic (B-A17; [20]): 0%; planktonic growth relative to the growth in the absence of both extract and antibiotic (B-A17; [21]): 0%; planktonic growth relative to the growth in the absence of both extract and antibiotic (B-A17; [22]): 0%; planktonic growth relative to the growth in the absence of both extract and antibiotic (B-A17; [23]): 52%; planktonic growth relative to the growth in the absence of both extract and antibiotic (B-A17; [24]): 53%; planktonic growth relative to the growth in the absence of both extract and antibiotic (B-A17; [25]): 52%; planktonic growth relative to the growth in the absence of both extract and antibiotic (B-A17; [26]): 31%; planktonic growth relative to the growth in the absence of both extract and antibiotic (B-A17; [27]): 7%; planktonic growth relative to the growth in the absence of both extract and antibiotic (B-A17; [28]): −4%; planktonic growth relative to the growth in the absence of both extract and antibiotic (B-A17; [29]): −4%; planktonic growth relative to the growth in the absence of both extract and antibiotic (B-A17; [30]): −4%; planktonic growth relative to the growth in the absence of both extract and antibiotic (B-A17; [31]): −4%; planktonic growth relative to the growth in the absence of both extract and antibiotic (B-A17; [32]): −5%; planktonic growth relative to the growth in the absence of both extract and antibiotic (B-A17; [33]): −1%

— patent US12702691B2, “Extract of an herbal composition as antimicrobial and/or antibiofilm agent” (ALPHANOSOS S.A.S., priority 2016, dated 2026)
